From ChEMBL document CHEMBL5344402, “A multi-target directed ligands strategy for the treatment of Alzheimer's disease: Dimethyl fumarate plus Tranilast modified Dithiocarbate as AChE inhibitor and Nrf2 activator” (Eur J Med Chem, 2022)

Columns and labels:
[1] = biological target: Cholinesterase (Equus caballus) (UniProt P81908); test: Inhibition of equine serum BuChE using butyrylthiocholine iodide as substrate at 10 uM preincubated for 5 mins followed by substrate addition by DTNB reagent based Ellman's method relative to control; assay type: cell-free
Acetylcholinesterase [2] = biological target: Acetylcholinesterase (Electrophorus electricus, UniProt O42275); test: Inhibition of electric eel AChE using acetylthiocholine iodide as substrate preincubated for 5 mins followed by substrate addition by DTNB reagent based Ellman's method
[3] = biological target: Cholinesterase (Homo sapiens) (UniProt P06276); test: Inhibition of human BuChE using butyrylthiocholine iodide as substrate at 10 uM preincubated for 5 mins followed by substrate addition by DTNB reagent based Ellman's method relative to control
in vitro = details: PAMPA
Acetylcholinesterase [4] = biological target: Acetylcholinesterase (Homo sapiens, UniProt P22303); test: Inhibition of human AChE using acetylthiocholine iodide as substrate preincubated for 5 mins followed by substrate addition by DTNB reagent based Ellman's method
Acetylcholinesterase (Homo sapiens, UniProt P22303), sequence (P22303 whole entry): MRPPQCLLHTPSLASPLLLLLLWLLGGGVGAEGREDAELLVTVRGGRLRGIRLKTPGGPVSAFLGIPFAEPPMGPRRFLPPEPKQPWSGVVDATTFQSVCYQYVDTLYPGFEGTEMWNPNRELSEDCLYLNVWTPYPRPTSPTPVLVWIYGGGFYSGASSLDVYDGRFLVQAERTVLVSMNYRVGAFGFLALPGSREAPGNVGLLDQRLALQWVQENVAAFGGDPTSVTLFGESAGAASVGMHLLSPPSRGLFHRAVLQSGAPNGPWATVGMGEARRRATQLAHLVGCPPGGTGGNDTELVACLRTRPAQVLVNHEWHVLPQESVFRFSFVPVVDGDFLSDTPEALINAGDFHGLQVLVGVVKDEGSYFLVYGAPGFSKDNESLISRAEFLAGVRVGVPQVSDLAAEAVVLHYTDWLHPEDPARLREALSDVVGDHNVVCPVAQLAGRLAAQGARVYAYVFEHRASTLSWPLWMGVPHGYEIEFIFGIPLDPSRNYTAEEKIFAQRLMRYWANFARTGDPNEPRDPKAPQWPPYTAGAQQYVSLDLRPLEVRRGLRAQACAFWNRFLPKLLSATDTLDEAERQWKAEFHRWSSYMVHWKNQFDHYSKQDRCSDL

Acetylcholinesterase (Electrophorus electricus, UniProt O42275), sequence (O42275 whole entry): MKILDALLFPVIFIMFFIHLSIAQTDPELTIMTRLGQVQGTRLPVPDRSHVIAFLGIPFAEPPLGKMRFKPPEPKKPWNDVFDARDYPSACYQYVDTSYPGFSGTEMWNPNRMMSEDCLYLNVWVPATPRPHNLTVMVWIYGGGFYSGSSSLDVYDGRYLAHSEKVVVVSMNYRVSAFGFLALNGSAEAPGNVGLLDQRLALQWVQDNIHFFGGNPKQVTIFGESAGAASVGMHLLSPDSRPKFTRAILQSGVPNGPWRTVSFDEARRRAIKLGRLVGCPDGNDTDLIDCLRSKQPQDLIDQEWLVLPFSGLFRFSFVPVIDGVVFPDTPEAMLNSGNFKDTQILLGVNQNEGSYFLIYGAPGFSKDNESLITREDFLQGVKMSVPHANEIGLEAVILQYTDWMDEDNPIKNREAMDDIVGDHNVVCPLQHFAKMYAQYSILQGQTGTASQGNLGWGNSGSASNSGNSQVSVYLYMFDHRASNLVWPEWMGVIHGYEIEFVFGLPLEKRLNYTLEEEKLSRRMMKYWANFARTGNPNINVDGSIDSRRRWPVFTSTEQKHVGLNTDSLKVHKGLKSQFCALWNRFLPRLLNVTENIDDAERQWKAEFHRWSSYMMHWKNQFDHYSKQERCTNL
Cholinesterase (Homo sapiens), sequence (P06276 whole entry): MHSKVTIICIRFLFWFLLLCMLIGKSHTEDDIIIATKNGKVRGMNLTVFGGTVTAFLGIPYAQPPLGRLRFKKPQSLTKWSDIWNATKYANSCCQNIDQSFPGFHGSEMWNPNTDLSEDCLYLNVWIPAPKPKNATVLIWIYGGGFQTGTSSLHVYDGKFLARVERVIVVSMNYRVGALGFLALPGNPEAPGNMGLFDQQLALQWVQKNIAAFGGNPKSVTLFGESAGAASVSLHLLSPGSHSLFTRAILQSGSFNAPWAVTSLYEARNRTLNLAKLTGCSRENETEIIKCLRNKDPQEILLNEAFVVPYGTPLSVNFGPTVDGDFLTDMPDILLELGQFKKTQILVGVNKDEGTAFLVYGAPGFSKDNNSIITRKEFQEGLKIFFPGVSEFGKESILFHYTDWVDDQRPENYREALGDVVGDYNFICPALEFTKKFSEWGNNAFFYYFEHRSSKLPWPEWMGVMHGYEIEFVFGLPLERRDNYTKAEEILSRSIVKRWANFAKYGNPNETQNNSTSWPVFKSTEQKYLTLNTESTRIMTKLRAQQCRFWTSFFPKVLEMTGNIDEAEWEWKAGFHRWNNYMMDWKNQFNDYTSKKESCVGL
Cholinesterase (Equus caballus), sequence (P81908 whole entry): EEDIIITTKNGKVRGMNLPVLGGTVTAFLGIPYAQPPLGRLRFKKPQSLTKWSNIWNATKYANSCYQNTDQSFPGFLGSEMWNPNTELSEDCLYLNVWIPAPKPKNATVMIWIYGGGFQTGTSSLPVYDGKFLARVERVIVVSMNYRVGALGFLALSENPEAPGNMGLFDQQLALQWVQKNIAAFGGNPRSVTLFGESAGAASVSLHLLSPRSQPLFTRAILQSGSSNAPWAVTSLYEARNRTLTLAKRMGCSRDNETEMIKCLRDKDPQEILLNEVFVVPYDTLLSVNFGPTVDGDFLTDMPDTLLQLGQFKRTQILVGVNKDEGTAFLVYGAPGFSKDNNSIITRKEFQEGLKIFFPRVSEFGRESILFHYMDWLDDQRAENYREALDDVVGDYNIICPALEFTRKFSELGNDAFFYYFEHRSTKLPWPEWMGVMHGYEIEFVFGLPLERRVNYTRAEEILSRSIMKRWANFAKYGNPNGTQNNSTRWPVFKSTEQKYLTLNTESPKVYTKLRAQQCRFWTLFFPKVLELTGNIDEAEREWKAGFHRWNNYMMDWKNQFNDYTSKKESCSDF

| SMILES | inhibition [1] | IC50 (Acetylcholinesterase [2]) | inhibition [3] | Papp at 18 h (in vitro) | IC50 (Acetylcholinesterase [4]) |
| --- | --- | --- | --- | --- | --- |
| COC(=O)/C=C/C(=O)Nc1cccc(OCCCCCCSC(=S)N2CCCCC2)c1 | < 5% | 28.7 µM | – | – | – |
| COC(=O)/C=C/C(=O)Nc1cccc(OCCCCCSC(=S)N2CCCCC2)c1 | < 5% | 26.7 µM | – | – | – |
| COC(=O)/C=C/C(=O)Nc1cccc(OCCCCSC(=S)N2CCC(C)CC2)c1 | 8.48% | 19.7 µM | – | – | – |
| COC(=O)/C=C/C(=O)Nc1cccc(OCCCCSC(=S)N2CCC(N3CCCCC3)CC2)c1 | 5.6% | 12.7 µM | – | – | – |
| COC(=O)/C=C/C(=O)Nc1cccc(OCCCCSC(=S)N2CCCC2)c1 | 8.8% | 8.14 µM | < 5% | 10.4 ×10⁻⁶ cm/s | 6040 nM |
| COC(=O)/C=C/C(=O)Nc1ccc(OCCCCSC(=S)N2CCCCC2C)cc1 (stereo not drawn) | 18% | 0.49 µM | < 5% | 12.7 ×10⁻⁶ cm/s | 380 nM |
| COC(=O)/C=C/C(=O)Nc1cccc(OCCSC(=S)N2CCCCC2)c1 | 12.8% | 2.56 µM | 6.83% | 21.3 ×10⁻⁶ cm/s | 1390 nM |
| COC(=O)/C=C/C(=O)Nc1cccc(OCCCSC(=S)N2CCCCC2)c1 | 13.2% | 2.38 µM | 7.06% | 13 ×10⁻⁶ cm/s | 1980 nM |
